Test results published in PMC8400200, “Selective Moonlighting Cell-Penetrating Peptides” (Pharmaceutics, 2021).
“Also recorded” adds a separate entry of the source.

Experiments:
yeast or mammalian cells = conditions: cited from earlier work
Excerpt: Additionally, three other peptides were designed to test the activation strategy (see Table 1). […] For this strategy we chose the peptidase neprilysin (also known as CD10), known to be overexpressed in some types of cancer tissues. The cleavage site sequence recognized by this protease has been well characte ...

[1] = test system: HEK293T, HEK293T-NEP and HeLa cells; assay: Internalization assay, epifluorescence microscopy, compared or averaged over the three cell lines; assay type: cell-based; conditions: for internalization compared between peptides: medians of box plots (Figure 6A, 6B); for internalization compared between cell lines: medians of box plots (Figure 6A)
Experimental: (§1) This procedure was adapted from a previously reported protocol. Cells were incubated with TatNep, TatNepNoCPP or D-TatNepNoCPP peptides at a concentration of 10, 5 and 1 μM (see Table 1). All peptides were dissolved in a 1:4 DMSO-Water solution. Cells were incubated with each peptide for 30 min, then washed with PBS three times and fixed with 4% paraformaldehyde (Merck, Naucalpan de Juárez Edo. de Mexico, Mexico) for 30 min at room temperature. Afterwards, samples were washed with PBS three times and then incubated with 1 μg/mL of DAPI for 2 min at room temperature. For the images, 1000 cells were taken (3 replicates) by using the epifluorescent microscopy (Nikon ECLIPSE Ti-U). Due to a slight precipitation of the peptides, to avoid interference with the quantification, the 10% with the highest fluorescence intensity were considered outliers and were removed for all conditions. A total of 2700 cells remained for further analysis. Internalization analysis was performed by confocal microscopy. Cells were incubated with any of the three peptides at a concentration of 5 μM for 30 min (the fluorescence was strong and the precipitation reduced), then cell membranes were stained with the CellMask^TM Green Plasma Membrane Stain (ThermoFisher, Waltham, MA, USA) following specifications of the provider. Images were acquired with a Zeiss LSM800 microscope using the ZEN 2.6 (blue edition) software. All images were analyzed with the Fiji/ImageJ Software and are available at http://bis.ifc.unam.mx/ironbios/selmoonCPP/ (accessed on 21 July 2021).
For the mammalian cells images obtained from epifluorescence microscopy, a normality Shapiro–Wilk test was done for each individual condition (27 conditions).

[2] = test system: HEK293T, HEK293T-NEP and HeLa cells; assay: Internalization analysis by confocal microscopy in mammalian cells; assay type: cell-based; conditions: 5 μM, 30 min, CellMask Green membrane stain
Experimental: as §1

[3] = test system: S. cerevisiae MATa and MATα cells; assay: Internalization in yeast cells exposed separately, imaging flow cytometry; assay type: cell-based, Saccharomyces cerevisiae; conditions: for penetrating efficiency in MATa cells compared among the targeted CPPs: MATa exposed separately or mixed with MATα cells
Experimental: We adapted a previous protocol reported to analyze fluorescent single yeast cells. Briefly, cells were grown overnight and diluted to a final optical density measured at 600 nm of 1.0. A total of 116 μL of this cell dilution was mixed with 4 μL of a solution of penetrating peptide at 200 mM in a 1.5 mL plastic tube. This mixture was analyzed every 5 min for 60 min in a flux cytometer coupled to a multiphotonic microscope (Amnis ImageStream Mark II). In that equipment, 10,000 pictures were taken to record green (excitation 488 nm and emission 509 nm) and red (excitation 561 nm and emission 669 nm) fluorescence and the bright field. These images were then analyzed with the IDEAS software that is part of the Amnis equipment, to identify peptide internalization (red fluorescence). Two types of experiments were conducted; in one set, we exposed MATa and MATα cells separately to peptides α-NLS-C, NLS-α-CE and chimera (see Table 1 for a description of the peptide sequences). In another set of experiments, we exposed MATa and MATα cells mixed together to different penetrating peptides labeled with TAMRA; for this last experiment, the ribosomal protein RPL9A was fused to GFP in MATa cells, to facilitate their distinction from MATα cells. Events recorded in this way were further analyzed to discard cell debris and images that included clumps of cells. Images with a total area of 20–50 μm and an aspect ratio of 0.7 allowed us to identify events that include 1 or 2 cells; furthermore, images with less than 1500 arbitrary units of fluorescence were discarded. The data were plotted using ggplot2 from the R package. Please note that the reported experimental conditions were selected among several trials on the AMNIs equipment to identify the best conditions for these experiments.

MATa cells = conditions: cited from earlier work
Excerpt: In the targeted strategy, we noticed differences in penetrating efficiencies among the three targeted CPPs. […] This is observed when MATa are exposed to these peptides separately or mixed with MATα cells. […] However, if NLS-α-CE and chimera peptides would be disrupting the membrane potential of MATa cells as part of their toxic ...

[4] = test system: S. cerevisiae MATa and MATα cells; assay: Internalization in yeast cells followed by confocal microscopy; assay type: cell-based, Saccharomyces cerevisiae; conditions: 50 μM peptide, OD600 0.4, cells in 0.5% agarose, pictures every 3 min for 1 h, two sets of experiments
Experimental: To confirm that the fluorescence detected using the AMNIS multiphotonic microscope was the fluorescence inside cells, we carried out confocal microscopy experiments (Zeiss LSM510 META) by adapting a previous report. For that end, yeast cells for each yeast haplotype were grown overnight for 14 h in YPD (1% yeast extract (USB Corp., Cleveland, OH, USA), 2% bacto peptone (Becton, Dickinson and Company, Franklin Lakes, NJ, USA) and 2% glucose (Merck, Naucalpan de Juárez Edo. De Mexico, Mexico). Cells were then centrifuged and resuspended in YPD. An OD600 of 0.4 was used for the confocal microscopy experiments, whereas for the cytometry experiments (above) a value of 1.0 was chosen. Yeast cells were immobilized using low melting point agarose (Agarose SFR VWR Life Technologies, Radnor PA, USA) at 0.5%. The peptide concentration used for these experiments was 50 μM. Prior to performing any observations, 3 cycles of sonications (sonicator Bransonic 32) for 3 min each were performed to dissolve potential peptide aggregates. A total of 12.5 μL of yeast inoculum, 1.5 μL of TAMRA-α-NLS-C solution and 1 μL of previously heated agarose were placed on a microscope slide. […] Images were analyzed using Fiji software and the fluorescence intensity recorded for each cell was divided by the area of the corresponding cell.

HEK293T cells = assay: Internalization assay, epifluorescence microscopy; assay type: cell-based; conditions: 10 μM, 30 min, fixed cells, 2700 cells (3 replicates)
Experimental: as §1, with “Internalization analysis was performed by confocal microscopy.” left out, “Images were acquired with a Zeiss LSM800 microscope using the ZEN 2.6 (blue edition) software.” left out, “2021). […]” for “2021).”

HEK293T-NEP cells = assay: Internalization assay, epifluorescence microscopy; assay type: cell-based; conditions: 10 μM, 30 min, fixed cells, 2700 cells (3 replicates)
Experimental: HEK293T cells were transfected as previously described with the plasmid PCSC-SP-PW-Nep (Addgene, Watertown, MA, USA), which contains the human neprilysin (MME) gene. This transfection was done with the use of the reagent polyethylenimine (PEI) according to the stable transfection procedures for adherent cells. The transfected HEK293T cells were cultured with DMEM containing 10% FBS and Zeocin 400 µg/mL (ThermoFisher, Waltham, MA, USA) to select stably transfected cells, which were recovered after the third day of transfection. […]
This procedure was adapted from a previously reported protocol. […] Due to a slight precipitation of the peptides, to avoid interference with the quantification, the 10% with the highest fluorescence intensity were considered outliers and were removed for all conditions. […] Cells were incubated with any of the three peptides at a concentration of 5 μM for 30 min (the fluorescence was strong and the precipitation reduced), then cell membranes were stained with the CellMask^TM Green Plasma Membrane Stain (ThermoFisher, Waltham, MA, USA) following specifications of the provider. […] All images were analyzed with the Fiji/ImageJ Software and are available at http://bis.ifc.unam.mx/ironbios/selmoonCPP/ (accessed on 21 July 2021). […]

[5] = epifluorescence, 10, 5 and 1 μM, 30 min

5(6)-carboxytetramethyl rhodamine [TAMRA]
internalization of the free fluorophore (yeast or mammalian cells): do not internalize

D-(YGRKKRRQRRRFFGFLADDDDEE) [D-TatNepNoCPP, all-D isomer of TatNepNoCPP, negative control, N-terminal TAMRA]
concentration dependence of internalization [1, 5]: does not present a concentration dependent internalization
internalization compared between peptides [1, 5]: less internalized in all cell lines; also recorded: TatNepNoCPP > TatNep > D-TatNepNoCPP
internalization by orthogonal projection [2]: less internalization compared with the other two peptides in all three cell lines
pattern of fluorescence [2]: diffused layer covering the cells

FRKWRRKPKKKRKVWWRKVKRRWHWLQLKPGQPMY [NLS-α-CE]
penetrating efficiency in MATa cells compared among the targeted CPPs [3]: penetrate less efficiently MATa cells expressing the targeted surface protein (Ste2p) than the α-NLS-C peptide
toxicity to MATa cells (MATa cells): toxic to MATa cells

KRRWRFVWMNPKKKRKVPPWPYLLWWHWLQLKPGQPMY [Chimera]
penetrating efficiency in MATa cells compared among the targeted CPPs [3]: penetrate less efficiently MATa cells expressing the targeted surface protein (Ste2p) than the α-NLS-C peptide
toxicity to MATa cells (MATa cells): toxic to MATa cells

RLWHWLQLKPGQPMYWRQPKSKRKVRR [α-NLS-C]
selectivity of internalization (fluorescence intensity inside cells), MATa vs MATα ([3]; living cells exposed separately, OD600 1.0, TAMRA-labelled peptide (4 μL of 200 mM solution in 120 μL), read every 5 min for 60 min, Amnis ImageStream, 10,000 cells per condition, repeated at least 3 times): more selectivity towards MATα cells than NLS-α-CE and chimera peptides
TAMRA fluorescence inside cells, MATa vs MATα [4]: cells expressing the α-pheromone receptor STE2 (MATa cells) internalized more fluorescence than cells that did not express the receptor

YGRKKRRQRRRFFG [TatNep, peptide produced by digestion of TatNepNoCPP by neprilysin, positive control for internalization, N-terminal TAMRA]
ratio between medians of normalized fluorescence intensity, column peptide against row peptide D-TatNepNoCPP (HEK293T cells): 2.8
ratio between medians of normalized fluorescence intensity, column peptide against row peptide TatNepNoCPP (HEK293T cells): 2.4
internalization compared between cell lines [1, 5]: internalized in HEK293T and the over-expressing HEK293T-NEP cells with the same efficiency; also recorded: HeLa cells internalized more of this peptide at 10 μM than the other cell lines
internalization compared between peptides [1, 5]: TatNepNoCPP > TatNep > D-TatNepNoCPP
pattern of fluorescence [2]: punctuated fluorescence

YGRKKRRQRRRFFGFLADDDDEE [TatNepNoCPP]
ratio between medians of normalized fluorescence intensity, column peptide against row peptide TatNep (HEK293T-NEP cells): 2.4
internalization, times higher than TatNep ([1]; average of the ratios of medians per cell line, 10 μM): 3 times
internalization compared between cell lines [1, 5]: HeLa > HEK293T > HEK293T-NEP
internalization compared between peptides [1, 5]: best internalization with respect to the other peptides for any cell line; also recorded: TatNepNoCPP > TatNep > D-TatNepNoCPP
pattern of fluorescence [2]: diffused layer covering the cells
